≈ marks a conversion by molar mass, not a printed value. Where “and” joins values, the source holds several entries; their conditions need not be identical. Equal entries are not always repeated.
Legend:
[1] = system: C. coli ATCC33559; assay: Copper sulfate sensitivity dose–response assay in vitro (MIC/MBC); format: cell-based; settings: Campylobacter coli; for MIC: ATCC33559, read-out: MIC, C. coli (Table S4); for MBC: ATCC33559, 0.5 mM CuSO4, read-out: MBC, C. coli (Table S5)
Experimental: (§1) Campylobacter jejuni 81–176 was the primary model strain used for the selection of the potential Tat-dependent inhibitors by high-throughput screening. C. jejuni 81–176 is resistant to 0.5 and 1 mM CuSO4 (Supplementary Figure S1). C. jejuni 81–176 tatC knockout mutant (C. jejuni ΔtatC) was used to confirm the Tat-dependent inhibitory effect of the selected SM. C. jejuni ΔtatC is susceptible to 0.5 mM and higher of CuSO4 ([Rajashekara et al., 2009]). The specificity of the Tat-dependent inhibitors was also tested on 11 additional Campylobacter strains (C. coli ATCC33559 and 10 other C. jejuni strains isolated from chickens) and 7 commensal/beneficial bacteria (Supplementary Table S1). The […] (Au-13, Au-20, Au-38, Au-39, Au-47, Au-50, Au-24, Au-32, Au-44, and Au-45) were selected based on their single nucleotide polymorphism (SNP)-type and percent of prevalence in chickens ([Merchant-Patel et al., 2008]; [Kumar et al., 2016]). Additional details about the bacterial strains are shown in Supplementary Table S1.
(§2) In total, 19 SMs were two-fold serially diluted to obtain a final SM concentration ranging from 6.25 to 0.012 μg/mL. C. jejuni 81–176 was then treated with a determined concentration of SM, as described in the copper sensitivity assay. […] The lowest bactericidal SM concentration was considered the MBC (no increase in OD600 over time and no viable cells were recovered on agar plate after challenge) (N = 3 replicates per SM). […] However, these SMs were two-fold serially diluted to obtain a final SM concentration ranging from 5 μg to 0.0625 μg for testing (N = two independent experiments with four technical replicate for each SM).

[2] = system: C. jejuni Au-13; assay: as above; format: cell-based; settings: Campylobacter jejuni; for MIC: AU13, read-out: MIC, Au-13 (Table S4); for MBC: AU13, 0.5 mM CuSO4, read-out: MBC, Au-13 (Table S5)
Experimental: as §1, §2

[3] = system: C. jejuni Au-20; assay: as above; format: cell-based; settings: Campylobacter jejuni; for MIC: AU20, read-out: MIC, Au-20 (Table S4); for MBC: AU20, 0.5 mM CuSO4, read-out: MBC, Au-20 (Table S5)
Experimental: as §1, §2

[4] = system: C. jejuni Au-24; assay: as above; format: cell-based; settings: Campylobacter jejuni; for MIC: AU24, read-out: MIC, Au-24 (Table S4); for MBC: AU24, 0.5 mM CuSO4, read-out: MBC, Au-24 (Table S5)
Experimental: as §1, §2

[5] = system: C. jejuni Au-32; assay: as above; format: cell-based; settings: Campylobacter jejuni; for MIC: AU32, read-out: MIC, Au-32 (Table S4); for MBC: AU32, 0.5 mM CuSO4, read-out: MBC, Au-32 (Table S5)
Experimental: as §1, §2

[6] = system: C. jejuni Au-38; assay: as above; format: cell-based; settings: Campylobacter jejuni; for MIC: AU38, read-out: MIC, Au-38 (Table S4); for MBC: AU38, 0.5 mM CuSO4, read-out: MBC, Au-38 (Table S5)
Experimental: as §1, §2

[7] = system: C. jejuni Au-39; assay: as above; format: cell-based; settings: Campylobacter jejuni; for MIC: AU39, read-out: MIC, Au-39 (Table S4); for MBC: AU39, 0.5 mM CuSO4, read-out: MBC, Au-39 (Table S5)
Experimental: as §1, §2

[8] = system: C. jejuni Au-44; assay: as above; format: cell-based; settings: Campylobacter jejuni; for MIC: AU44, read-out: MIC, Au-44 (Table S4); for MBC: AU44, 0.5 mM CuSO4, read-out: MBC, Au-44 (Table S5)
Experimental: as §1, §2

[9] = system: C. jejuni Au-45; assay: as above; format: cell-based; settings: Campylobacter jejuni; for MIC: AU45, read-out: MIC, Au-45 (Table S4); for MBC: AU45, 0.5 mM CuSO4, read-out: MBC, Au-45 (Table S5)
Experimental: as §1, §2

[10] = system: C. jejuni Au-47; assay: as above; format: cell-based; settings: Campylobacter jejuni; for MIC: AU47, read-out: MIC, Au-47 (Table S4); for MBC: AU47, 0.5 mM CuSO4, read-out: MBC, Au-47 (Table S5)
Experimental: as §1, §2

[11] = system: C. jejuni Au-50; assay: as above; format: cell-based; settings: Campylobacter jejuni; for MIC: AU50, read-out: MIC, Au-50 (Table S4); for MBC: AU50, 0.5 mM CuSO4, read-out: MBC, Au-50 (Table S5)
Experimental: as §1, §2

[12] = system: Commensal/beneficial gut bacteria (n = 7); assay: Activity spectrum against commensal/beneficial gut bacteria at 6.25 μg/mL; format: cell-based; settings: 6.25 μg/mL SM; for Commensal/beneficial gut bacteria inhibited at 6.25 μg/mL (species): Ef Enterococcus faecalis, Lb Levilactobacillus brevis, LGG Lacticaseibacillus rhamnosus GG
Experimental: A similar experiment was performed with seven commensal/beneficial gut bacteria to determine species specificity of these SMs. In brief, an overnight suspension was normalized at 0.05 OD600 using the appropriate medium and challenged with 6.25 μg/mL of SM. Details about the strains and their growing conditions are shown in Supplementary Table S1. Medium alone and 1% DMSO were used as controls (N = 3 replicates per SM).

[13] = system: intracellular C. jejuni 81–176 in Caco-2 cells; assay: Copper sulfate sensitivity dose–response assay in infected Caco-2 colon epithelial cells; format: cell-based, Campylobacter jejuni; settings: 0.5 mM CuSO4; for SM concentration that completely cleared intracellular C. jejuni 81–176 in Caco-2 cells (MBC in Caco2 cells): 24 h treatment; for C. jejuni 81–176 MBC in Caco2 cells: infected Caco-2 cells, 24 h
Experimental: The intracellular reduction in C. jejuni in the presence of a given SM (T1-T8) and 0.5 mM CuSO4 were evaluated using Caco-2 cells, as previously described ([Kumar et al., 2016]; [Deblais et al., 2019]). In brief, cells were infected for 2 h using a multiplicity of infection (MOI) of 100. Infected cells were treated with SM at a final concentration ranging between 5 and 0.315 μg/mL and incubated at 37°C for 24 h in a humidified 5% CO2 incubator. Following incubation, cells were washed once with 1X PBS, lysed with 0.1% Triton-100X, serially 10-fold diluted in 1X PBS, and plated on MH agar plate. Plates were incubated in microaerophilic conditions at 42°C for 24 h, to determine the intracellular survival. Cells not infected and not treated and cells infected and treated with 1% DMSO were used as controls (N = two independent experiments with four technical replicate for each SM).

[14] = system: Caco-2 cells; assay: Cytotoxicity on Caco-2 colon epithelial cells (LDH assay); format: cell-based; settings: for cytotoxicity index on Caco-2 cells: 5 μg SM /ml, 24 h
Experimental: Cytotoxicity of the eight SMs (T1-T8) was tested on Caco-2 cells at 5, 25, and 50 μg/mL, as previously described ([Kumar et al., 2016]; [Deblais et al., 2019]). In brief, a 96-well plate seeded with approximately 1.4 × 10^5 Caco-2 cells/well in MEM medium was challenged with a final SM concentration of 5, 25, and 50 μg/mL. After 24 h of incubation at 37°C in a humidified 5% CO2 incubator, cytotoxic effects were determined using the PierceTM Lactate Dehydrogenase Cytotoxicity Assay Kit (Thermo Fisher Scientific). Cell death was measured based on the production of formazan (chromogenic dye), which can be read at OD570. Equal concentrations (5, 25, and 50 μg/mL) of kanamycin or chloramphenicol, 1% DMSO, and 10X lysis buffer were used as control. The cytotoxicity level was calculated according to the manufacturer’s instructions (N = two independent experiments with three technical replicate for each SM).

Compound	MIC [1] [µg/mL]	MBC [1] [µg/mL]	MIC [2] [µg/mL]	MBC [2] [µg/mL]	MIC [3] [µg/mL]	MBC [3] [µg/mL]	MIC [4] [µg/mL]	MBC [4] [µg/mL]	MIC [5] [µg/mL]	MBC [5] [µg/mL]	MIC [6] [µg/mL]	MBC [6] [µg/mL]	MIC [7] [µg/mL]	MBC [7] [µg/mL]	MIC [8] [µg/mL]	MBC [8] [µg/mL]	MIC [9] [µg/mL]	MBC [9] [µg/mL]	MIC [10] [µg/mL]	MBC [10] [µg/mL]	also measured
CSc1ccccc1-c1nnc(NC(=O)Cc2ccccc2)o1 [T7]	0.16 (≈ 0.492 µM)	0.32 (≈ 0.983 µM)	0.31 (≈ 0.953 µM)	0.62 (≈ 1.91 µM)	0.16 (≈ 0.492 µM)	0.32 (≈ 0.983 µM)	0.08 (≈ 0.246 µM)	0.16 (≈ 0.492 µM)	0.08 (≈ 0.246 µM)	0.16 (≈ 0.492 µM)	0.16 (≈ 0.492 µM)	0.32 (≈ 0.983 µM)	0.31 (≈ 0.953 µM)	0.62 (≈ 1.91 µM)	0.31 (≈ 0.953 µM)	1.24 (≈ 3.81 µM)	0.16 (≈ 0.492 µM)	0.32 (≈ 0.983 µM)	0.31 (≈ 0.953 µM)	0.62 (≈ 1.91 µM)	MIC [11]: 0.08 µg/mL (≈ 0.246 µM); MBC [11]: 0.32 µg/mL (≈ 0.983 µM); Growth inhibition at 6.25 μg/mL, Commensal/beneficial gut bacteria (strains inhibited/tested) [12]: 1/7; Commensal/beneficial gut bacteria inhibited at 6.25 μg/mL (species) [12]: LGG; SM concentration that completely cleared intracellular C. jejuni 81–176 in Caco-2 cells (MBC in Caco2 cells) [13]: < 5 µg/mL; C. jejuni 81–176 MBC in Caco2 cells [13]: 2.5 µg/mL; cytotoxicity index on Caco-2 cells [14]: < 20%
CCN(CC)/C(C)=N/C(=O)Nc1ccccc1 [T8]	0.25 (≈ 1.07 µM)	0.25 (≈ 1.07 µM)	0.06 (≈ 0.257 µM)	0.06 (≈ 0.257 µM)	0.25 (≈ 1.07 µM)	0.25 (≈ 1.07 µM)	0.06 (≈ 0.257 µM)	0.06 (≈ 0.257 µM)	0.25 (≈ 1.07 µM)	0.25 (≈ 1.07 µM)	0.06 (≈ 0.257 µM)	0.06 (≈ 0.257 µM)	0.25 (≈ 1.07 µM)	0.25 (≈ 1.07 µM)	0.06 (≈ 0.257 µM)	0.12 (≈ 0.514 µM)	0.25 (≈ 1.07 µM)	0.25 (≈ 1.07 µM)	0.06 (≈ 0.257 µM)	0.06 (≈ 0.257 µM)	MIC [11]: 0.25 µg/mL (≈ 1.07 µM); MBC [11]: 0.5 µg/mL (≈ 2.14 µM); Growth inhibition at 6.25 μg/mL, Commensal/beneficial gut bacteria (strains inhibited/tested) [12]: 2/7; Commensal/beneficial gut bacteria inhibited at 6.25 μg/mL (species) [12]: Lb and Ef; SM concentration that completely cleared intracellular C. jejuni 81–176 in Caco-2 cells (MBC in Caco2 cells) [13]: < 5 µg/mL and 5 µg/mL; C. jejuni 81–176 MBC in Caco2 cells [13]: 5 µg/mL; cytotoxicity index on Caco-2 cells [14]: < 20%; toxicity level to Caco-2 cells ([14]; 25 μg/mL or 50 μg/mL of SM for 24 h): 33%

Reference: publication PMC11061419, “Identification of novel small molecule inhibitors of twin arginine translocation (Tat) pathway and their effect on the control of Campylobacter jejuni in chickens” (Frontiers in Microbiology, 2024)
